Source: ChEMBL document CHEMBL1155283, “Synthesis and anabolic/androgenic evaluation of novel 9alpha-fluorosteroids” (Eur J Med Chem, 2009)
Active and inactive are the calls of the source.

Key:
Assay type in all cases: functional, organism-based
Rattus norvegicus [1] = experiment: Anabolic activity in Wistar rat assessed as weight of levator ani muscle at 10 mg/kg of corporal weight, sc after 7 days by animal castration method; set-up: dose 10 mg/kg
Rattus norvegicus [2] = experiment: Androgenic activity in Wistar rat assessed as weight of prostate at 20 mg/kg of corporal weight, sc after 7 days by animal castration method; set-up: dose 20 mg/kg; conditions: Prostate gland
Rattus norvegicus [3] = experiment: Androgenic activity in Wistar rat assessed as weight of prostate at 10 mg/kg of corporal weight, sc after 7 days by animal castration method; set-up: dose 10 mg/kg; conditions: Prostate gland
Rattus norvegicus [4] = experiment: Anabolic activity in Wistar rat assessed as weight of levator ani muscle at 20 mg/kg of corporal weight, sc after 7 days by animal castration method; set-up: dose 20 mg/kg
Rattus norvegicus [5] = experiment: Androgenic activity in Wistar rat assessed as weight of seminal vesicle at 20 mg/kg of corporal weight, sc after 7 days by animal castration method; set-up: dose 20 mg/kg
Rattus norvegicus [6] = experiment: Androgenic activity in Wistar rat assessed as weight of seminal vesicle at 10 mg/kg of corporal weight, sc after 7 days by animal castration method; set-up: dose 10 mg/kg
Rattus norvegicus [7] = experiment: Androgenic activity in Wistar rat assessed as weight of prostate at 40 mg/kg of corporal weight, sc after 7 days by animal castration method; set-up: dose 40 mg/kg; conditions: Prostate gland
Rattus norvegicus [8] = experiment: Androgenic activity in Wistar rat assessed as weight of seminal vesicle at 40 mg/kg of corporal weight, sc after 7 days by animal castration method; set-up: dose 40 mg/kg
Rattus norvegicus [9] = experiment: Anabolic activity in Wistar rat assessed as weight of levator ani muscle at 40 mg/kg of corporal weight, sc after 7 days by animal castration method; set-up: dose 40 mg/kg

Measured: Activity

CCC(=O)O[C@H]1CC[C@H]2[C@@H]3CC[C@H]4C[C@@H](OC(C)=O)CC[C@]4(C)[C@@]3(F)[C@@H](O)C[C@]12C
active: Rattus norvegicus [1] | Rattus norvegicus [2] | Rattus norvegicus [3] | Rattus norvegicus [4]

CCCCCCC(=O)O[C@H]1CC[C@H]2[C@@H]3CC[C@H]4C[C@@H](O)CC[C@]4(C)[C@@]3(F)[C@@H](O)C[C@]12C
not listed: Rattus norvegicus [1] | Rattus norvegicus [4] | Rattus norvegicus [9]
inactive: all other assays above

CC(=O)O[C@H]1CC[C@@]2(C)[C@@H](CC[C@H]3[C@@H]4CC[C@H](OC(C)=O)[C@@]4(C)C[C@H](O)[C@@]32F)C1
active: Rattus norvegicus [2] | Rattus norvegicus [7]

C[C@]12CC[C@H](O)C[C@@H]1CC[C@H]1[C@@H]3CCC(=O)[C@@]3(C)C[C@H](O)[C@@]12F
not listed: Rattus norvegicus [1] | Rattus norvegicus [4] | Rattus norvegicus [9]
inactive: all other assays above

CC(=O)O[C@H]1CC[C@@]2(C)[C@@H](CC[C@H]3[C@@H]4CC[C@H](O)[C@@]4(C)C[C@H](O)[C@@]32F)C1
inactive: Rattus norvegicus [6]
active: Rattus norvegicus [9] | Rattus norvegicus [4]

CC(C)C(=O)O[C@H]1CC[C@H]2[C@@H]3CC[C@H]4C[C@@H](O)CC[C@]4(C)[C@@]3(F)[C@@H](O)C[C@]12C
active: Rattus norvegicus [2] | Rattus norvegicus [3]
inactive: Rattus norvegicus [5] | Rattus norvegicus [6] | Rattus norvegicus [8]

CC(=O)O[C@H]1CC[C@@]2(C)[C@@H](CC[C@H]3[C@@H]4CCC(=O)[C@@]4(C)C[C@H](O)[C@@]32F)C1
active: Rattus norvegicus [2] | Rattus norvegicus [7]
not listed: Rattus norvegicus [3]
inactive: all other assays above
